Reference: paper PMC4928820 (Molecular Pharmaceutics, 2015)

Tests used:
[1] = water-saturated tricaprylin compared to dry tricaprylin ref 34; cited from earlier work
[2] = type: physicochemical; conditions: 37 °C, mean ± SD, triplicate; for Thermodynamic solubility in Carbitol: cosolvent; for Thermodynamic solubility in Maisine 35-1: long-chain mono-; for Thermodynamic solubility in Maisine 35-1 / Thermodynamic solubility in Capmul MCM EP: di-, triglyceride; for Thermodynamic solubility in Capmul MCM EP: medium-chain mono-; for Thermodynamic solubility in Cremophor EL: surfactant (≤3% w/w water)

SMILES: CNC(=O)c1ccccc1 [N-methylbenzamide]
- Increase of solubility [1]: more than 50%

SMILES: COc1cc(C)c(/C=C/C(C)=C/C=C/C(C)=C/C(=O)O)c(C)c1C [acitretin]
- Thermodynamic solubility in Carbitol [2]: 3.52 ± 0.20 mg/g
- Thermodynamic solubility in Maisine 35-1 [2]: 0.62 ± 0.06 mg/g
- Thermodynamic solubility in Capmul MCM EP [2]: 1.54 ± 0.10 mg/g
- Thermodynamic solubility in Cremophor EL [2]: 2.85 ± 0.14 mg/g

SMILES: CCCSc1ccc2nc(NC(=O)OC)[nH]c2c1 [albendazole]
- Thermodynamic solubility in Carbitol [2]: 5.99 ± 0.19 mg/g
- Thermodynamic solubility in Maisine 35-1 [2]: 3.86 ± 0.21 mg/g
- Thermodynamic solubility in Capmul MCM EP [2]: 3.17 ± 0.10 mg/g
- Thermodynamic solubility in Cremophor EL [2]: 2.75 ± 0.14 mg/g

SMILES: CC(C)(Oc1ccc(CCNC(=O)c2ccc(Cl)cc2)cc1)C(=O)O [bezafibrate]
- Thermodynamic solubility in Carbitol [2]: 43.0 ± 1.83 mg/g
- Thermodynamic solubility in Maisine 35-1 [2]: 1.55 ± 0.05 mg/g
- Thermodynamic solubility in Capmul MCM EP [2]: 6.36 ± 0.26 mg/g
- Thermodynamic solubility in Cremophor EL [2]: 37.9 ± 5.23 mg/g

SMILES: CCOc1nc2cccc(C(=O)OC(C)OC(=O)OC3CCCCC3)c2n1Cc1ccc(-c2ccccc2-c2nnn[nH]2)cc1 (stereo not drawn) [candesartan cilexetil]
- Thermodynamic solubility in Carbitol [2]: 77.0 ± 2.04 mg/g
- Thermodynamic solubility in Maisine 35-1 [2]: 1.99 ± 0.19 mg/g
- Thermodynamic solubility in Capmul MCM EP [2]: 9.07 ± 0.38 mg/g
- Thermodynamic solubility in Cremophor EL [2]: 26.4 ± 1.46 mg/g

SMILES: CCOc1nc2cccc(C(=O)O)c2n1Cc1ccc(-c2ccccc2-c2nnn[nH]2)cc1 [candesartan]
- Thermodynamic solubility in Carbitol [2]: 20.5 ± 1.26 mg/g
- Thermodynamic solubility in Maisine 35-1 [2]: ≤0.41 mg/g
- Thermodynamic solubility in Capmul MCM EP [2]: 3.19 ± 0.14 mg/g
- Thermodynamic solubility in Cremophor EL [2]: 11.3 ± 0.67 mg/g

SMILES: NC(=O)N1c2ccccc2C=Cc2ccccc21 [carbamazepine]
- Thermodynamic solubility in Carbitol [2]: 82.9 ± 1.80 mg/g
- Thermodynamic solubility in Maisine 35-1 [2]: 30.0 ± 1.66 mg/g
- Thermodynamic solubility in Capmul MCM EP [2]: 55.5 ± 3.23 mg/g
- Thermodynamic solubility in Cremophor EL [2]: 34.5 ± 1.06 mg/g

SMILES: CC(C)/N=c1\cc2n(-c3ccc(Cl)cc3)c3ccccc3nc-2cc1Nc1ccc(Cl)cc1 [clofazimine]
- Thermodynamic solubility in Carbitol [2]: 22.8 ± 0.54 mg/g
- Thermodynamic solubility in Maisine 35-1 [2]: 11.7 ± 0.24 mg/g
- Thermodynamic solubility in Capmul MCM EP [2]: 16.3 ± 0.44 mg/g
- Thermodynamic solubility in Cremophor EL [2]: 15.9 ± 0.83 mg/g

SMILES: Clc1ccccc1C(c1ccccc1)(c1ccccc1)n1ccnc1 [clotrimazole]
- Thermodynamic solubility in Carbitol [2]: 135.0 ± 3.57 mg/g
- Thermodynamic solubility in Maisine 35-1 [2]: 75.4 ± 8.95 mg/g
- Thermodynamic solubility in Capmul MCM EP [2]: 136.7 ± 5.94 mg/g
- Thermodynamic solubility in Cremophor EL [2]: 44.1 ± 3.01 mg/g

SMILES: O=C(O)c1cc(-c2ccc(F)cc2F)ccc1O [diflunisal]
- Thermodynamic solubility in Carbitol [2]: 286.3 ± 13.4 mg/g
- Thermodynamic solubility in Maisine 35-1 [2]: 31.6 ± 0.99 mg/g
- Thermodynamic solubility in Capmul MCM EP [2]: 53.4 ± 1.29 mg/g
- Thermodynamic solubility in Cremophor EL [2]: 157.9 ± 6.54 mg/g

SMILES: OCCN(CCO)c1nc(N2CCCCC2)c2nc(N(CCO)CCO)nc(N3CCCCC3)c2n1 [dipyridamole]
- Thermodynamic solubility in Carbitol [2]: 43.1 ± 2.40 mg/g
- Thermodynamic solubility in Maisine 35-1 [2]: 3.02 ± 0.16 mg/g
- Thermodynamic solubility in Capmul MCM EP [2]: 12.3 ± 0.36 mg/g
- Thermodynamic solubility in Cremophor EL [2]: 9.57 ± 0.29 mg/g

SMILES: CCN(CC)C(=S)SSC(=S)N(CC)CC [disulfiram]
- Thermodynamic solubility in Carbitol [2]: 162.6 ± 8.46 mg/g
- Thermodynamic solubility in Maisine 35-1 [2]: 49.0 ± 3.05 mg/g
- Thermodynamic solubility in Capmul MCM EP [2]: 47.2 ± 2.05 mg/g
- Thermodynamic solubility in Cremophor EL [2]: 88.8 ± 3.66 mg/g

SMILES: C#C[C@]1(O)CC[C@H]2[C@@H]3CCc4cc(O)ccc4[C@H]3CC[C@@]21C [ethinylestradiol]
- Thermodynamic solubility in Carbitol [2]: 247.1 ± 8.93 mg/g
- Thermodynamic solubility in Maisine 35-1 [2]: 22.1 ± 1.83 mg/g
- Thermodynamic solubility in Capmul MCM EP [2]: 56.3 ± 1.76 mg/g
- Thermodynamic solubility in Cremophor EL [2]: 163.9 ± 10.1 mg/g

SMILES: CCOC(=O)C1=C(C)NC(C)=C(C(=O)OC)C1c1cccc(Cl)c1Cl (stereo not drawn) [felodipine]
- Thermodynamic solubility in Carbitol [2]: 217.2 ± 16.0 mg/g
- Thermodynamic solubility in Maisine 35-1 [2]: 37.7 ± 1.37 mg/g
- Thermodynamic solubility in Capmul MCM EP [2]: 80.2 ± 2.22 mg/g
- Thermodynamic solubility in Cremophor EL [2]: 125.1 ± 6.23 mg/g

SMILES: COC(=O)Nc1nc2ccc(Sc3ccccc3)cc2[nH]1 [fenbendazole]
- Thermodynamic solubility in Carbitol [2]: 4.13 ± 0.28 mg/g
- Thermodynamic solubility in Maisine 35-1 [2]: 0.69 ± 0.11 mg/g
- Thermodynamic solubility in Capmul MCM EP [2]: 1.28 ± 0.09 mg/g
- Thermodynamic solubility in Cremophor EL [2]: 2.07 ± 0.09 mg/g

SMILES: CC(C)(Oc1ccc(C(=O)c2ccc(Cl)cc2)cc1)C(=O)O [fenofibric acid]
- Thermodynamic solubility in Carbitol [2]: 92.8 ± 4.81 mg/g
- Thermodynamic solubility in Maisine 35-1 [2]: 7.38 ± 0.22 mg/g
- Thermodynamic solubility in Capmul MCM EP [2]: 14.5 ± 0.50 mg/g
- Thermodynamic solubility in Cremophor EL [2]: 58.4 ± 2.59 mg/g

SMILES: COc1ccc(Cl)cc1C(=O)NCCc1ccc(S(=O)(=O)NC(=O)NC2CCCCC2)cc1 [glibenclamide]
- Thermodynamic solubility in Carbitol [2]: 21.1 ± 0.46 mg/g
- Thermodynamic solubility in Maisine 35-1 [2]: 0.52 ± 0.14 mg/g
- Thermodynamic solubility in Capmul MCM EP [2]: 5.49 ± 0.26 mg/g
- Thermodynamic solubility in Cremophor EL [2]: 11.2 ± 1.01 mg/g

SMILES: COC1=CC(=O)C[C@@H](C)[C@]12Oc1c(Cl)c(OC)cc(OC)c1C2=O [griseofulvin]
- Thermodynamic solubility in Carbitol [2]: 18.9 ± 0.99 mg/g
- Thermodynamic solubility in Maisine 35-1 [2]: 2.43 ± 0.05 mg/g
- Thermodynamic solubility in Capmul MCM EP [2]: 5.56 ± 0.21 mg/g
- Thermodynamic solubility in Cremophor EL [2]: 9.70 ± 0.36 mg/g

SMILES: CCCCN(CCCC)CCC(O)c1cc2c(Cl)cc(Cl)cc2c2cc(C(F)(F)F)ccc12 (stereo not drawn) [halofantrine]
- Thermodynamic solubility in Carbitol [2]: 79.3 ± 7.90 mg/g
- Thermodynamic solubility in Maisine 35-1 [2]: 71.2 ± 4.58 mg/g
- Thermodynamic solubility in Capmul MCM EP [2]: 52.6 ± 3.01 mg/g
- Thermodynamic solubility in Cremophor EL [2]: 27.9 ± 0.79 mg/g

SMILES: O=C(CCCN1CCC(O)(c2ccc(Cl)cc2)CC1)c1ccc(F)cc1 [haloperidol]
- Thermodynamic solubility in Carbitol [2]: 27.2 ± 1.82 mg/g
- Thermodynamic solubility in Maisine 35-1 [2]: 3.57 ± 0.16 mg/g
- Thermodynamic solubility in Capmul MCM EP [2]: 13.4 ± 0.51 mg/g
- Thermodynamic solubility in Cremophor EL [2]: 11.3 ± 0.82 mg/g

SMILES: COc1ccc2c(c1)c(CC(=O)O)c(C)n2C(=O)c1ccc(Cl)cc1 [indomethacin]
- Thermodynamic solubility in Carbitol [2]: 187.4 ± 7.08 mg/g
- Thermodynamic solubility in Maisine 35-1 [2]: 13.0 ± 0.88 mg/g
- Thermodynamic solubility in Capmul MCM EP [2]: 28.6 ± 1.30 mg/g
- Thermodynamic solubility in Cremophor EL [2]: 71.6 ± 4.57 mg/g

SMILES: CCC(C)n1ncn(-c2ccc(N3CCN(c4ccc(OCC5COC(Cn6cncn6)(c6ccc(Cl)cc6Cl)O5)cc4)CC3)cc2)c1=O (stereo not drawn) [itraconazole]
- Thermodynamic solubility in Carbitol [2]: 6.30 ± 0.55 mg/g
- Thermodynamic solubility in Maisine 35-1 [2]: 2.26 ± 0.16 mg/g
- Thermodynamic solubility in Capmul MCM EP [2]: 5.60 ± 0.67 mg/g
- Thermodynamic solubility in Cremophor EL [2]: 1.92 ± 0.29 mg/g

SMILES: Cc1cccc(Nc2ccccc2C(=O)O)c1C [mefenamic acid]
- Thermodynamic solubility in Carbitol [2]: 43.6 ± 1.52 mg/g
- Thermodynamic solubility in Maisine 35-1 [2]: 5.38 ± 0.40 mg/g
- Thermodynamic solubility in Capmul MCM EP [2]: 9.63 ± 0.40 mg/g
- Thermodynamic solubility in Cremophor EL [2]: 30.7 ± 0.89 mg/g

SMILES: O=C(Nc1ccc([N+](=O)[O-])cc1Cl)c1cc(Cl)ccc1O [niclosamide]
- Thermodynamic solubility in Carbitol [2]: 49.6 ± 2.62 mg/g
- Thermodynamic solubility in Maisine 35-1 [2]: 3.97 ± 0.19 mg/g
- Thermodynamic solubility in Capmul MCM EP [2]: 10.1 ± 0.40 mg/g
- Thermodynamic solubility in Cremophor EL [2]: 44.1 ± 1.75 mg/g

SMILES: COc1ccc2c(c1OC)C(=O)O[C@@H]2[C@H]1c2c(cc3c(c2OC)OCO3)CCN1C [noscapine]
- Thermodynamic solubility in Carbitol [2]: 25.6 ± 1.00 mg/g
- Thermodynamic solubility in Maisine 35-1 [2]: 5.36 ± 0.61 mg/g
- Thermodynamic solubility in Capmul MCM EP [2]: 7.23 ± 0.20 mg/g
- Thermodynamic solubility in Cremophor EL [2]: 12.3 ± 0.25 mg/g

SMILES: O=C(C1CCCCC1)N1CC(=O)N2CCc3ccccc3C2C1 (stereo not drawn) [praziquantel]
- Thermodynamic solubility in Carbitol [2]: 116.9 ± 14.8 mg/g
- Thermodynamic solubility in Maisine 35-1 [2]: 85.9 ± 5.32 mg/g
- Thermodynamic solubility in Capmul MCM EP [2]: 184.9 ± 12.4 mg/g
- Thermodynamic solubility in Cremophor EL [2]: 45.4 ± 3.51 mg/g

SMILES: CC(=O)[C@H]1CC[C@H]2[C@@H]3CCC4=CC(=O)CC[C@]4(C)[C@H]3CC[C@]12C [progesterone]
- Thermodynamic solubility in Carbitol [2]: 67.02 ± 1.36 mg/g
- Thermodynamic solubility in Maisine 35-1 [2]: 66.2 ± 4.87 mg/g
- Thermodynamic solubility in Capmul MCM EP [2]: 99.1 ± 2.94 mg/g
- Thermodynamic solubility in Cremophor EL [2]: 41.1 ± 1.27 mg/g

SMILES: CC(C)(C)NC(=O)[C@@H]1C[C@@H]2CCCC[C@@H]2CN1C[C@@H](O)[C@H](Cc1ccccc1)NC(=O)[C@H](CC(N)=O)NC(=O)c1ccc2ccccc2n1 [saquinavir]
- Thermodynamic solubility in Carbitol [2]: ≥317 mg/g
- Thermodynamic solubility in Maisine 35-1 [2]: ≥123 mg/g
- Thermodynamic solubility in Capmul MCM EP [2]: ≥288 mg/g

SMILES: O=C(O)c1cc(/N=N/c2ccc(S(=O)(=O)Nc3ccccn3)cc2)ccc1O [sulfasalazine]
- Thermodynamic solubility in Carbitol [2]: 16.4 ± 0.72 mg/g
- Thermodynamic solubility in Maisine 35-1 [2]: 0.16 ± 0.02 mg/g
- Thermodynamic solubility in Capmul MCM EP [2]: 3.16 ± 0.06 mg/g
- Thermodynamic solubility in Cremophor EL [2]: 13.1 ± 1.02 mg/g

SMILES: Cc1c(Cl)cccc1Nc1ccccc1C(=O)O [tolfenamic acid]
- Thermodynamic solubility in Carbitol [2]: 85.5 ± 4.29 mg/g
- Thermodynamic solubility in Maisine 35-1 [2]: 14.1 ± 1.18 mg/g
- Thermodynamic solubility in Capmul MCM EP [2]: 26.0 ± 1.45 mg/g
- Thermodynamic solubility in Cremophor EL [2]: 70.6 ± 3.87 mg/g

SMILES: Cc1cc(-n2c(=O)[nH]c(=O)n(C)c2=O)ccc1Oc1ccc(SC(F)(F)F)cc1 [toltrazuril]
- Thermodynamic solubility in Carbitol [2]: 50.2 ± 2.47 mg/g
- Thermodynamic solubility in Maisine 35-1 [2]: 7.90 ± 1.03 mg/g
- Thermodynamic solubility in Capmul MCM EP [2]: 11.8 ± 0.59 mg/g
- Thermodynamic solubility in Cremophor EL [2]: 19.7 ± 3.11 mg/g
